The values below come from patent publication US11572532B2, “Antimicrobial composition” (The Procter & Gamble Company, priority 2019, dated 2023).

One may read the MBC as the lowest tested concentration that kills the bacteria rather than only halting them.

Where a name gives a salt, the structure may show the parent alone.

Data set [1] concerns Staphylococcus aureus (S.aureus—ATCC #6538). The data set can be described thus: Minimum Biocidal Concentration (MBC) in suspension. Type of data set: cell-based. Conditions: active in 0.5% MEA + 1.5% TEA alkaline composition, no horse serum, contact time 6 minutes; for MBC: Staphylococcus aureus, ATCC6538, 0.1 h, read-out: MBC (ppm) S. aureus. The protocol:
(§1) B) Antibacterial Efficacy (Minimum Biocidal Concentration in Suspension):
(§2) The antimicrobial efficacy of the antimicrobial agent in the composition is determined by measuring its Minimum Biocidal Concentration (MBC). The MBC is defined as the lowest absolute concentration of the particular antimicrobial active which provides complete kill (zero bacterial growth).
(§3) The antimicrobial agent was added to the composition at a level of 1000 ppm, or 500 ppm, or 200 ppm, or 100 ppm or 50 ppm, depending on what the Minimum Biocidal Concentration (MBC) is. 200 μL of the antimicrobial hard surface cleaning composition was dosed into one well of row A of a 96 well microtiter plate. Each subsequent well (rows B to G) were dosed with 100 μL of the same hard surface cleaning composition, without the addition of the antimicrobial agent. 100 μL of the antimicrobial hard surface cleaning composition was transferred from row A to row B and mixed. 100 μL of the composition was then transferred from row B to row C and mixed, and the process repeated to row G. As such, the concentration of the antimicrobial agent underwent two-fold dilution in adjacent wells, while the concentration of the other actives in the hard surface cleaning composition remained constant across all the wells in the same column.
(§4) 10 μL of the 10^8CFU/ml bacteria suspension in saline was added to wells A to F of the microtiter plate with row G kept as a nil bacteria control. The final volume in each well was 110 μL, except for row G which comprised 100 μL of the hard surface cleaning composition and no bacteria suspension. Bacterial inoculation to each column was staggered by 30 seconds to allow for equal incubation times in all wells so that the contact time between the bacteria and the antimicrobial active for all samples was 6 mins. After this contact time, 10 μL of each test solution was transferred to 90 μL of neutralizer solution (Modified Letheen Broth +1.5% Polysorbate 80, supplied by BioMérieux) to stop the antimicrobial action of the antimicrobial active matching the stagger of the inoculation. 2 μL of this solution was plated onto a TSA plate matching the stagger of the inoculation so that all samples are exposed to the neutralizer for the same period of time. The plate was incubated at 32.5° C. for 48 h. MBC concentration is taken as the lowest concentration of the antimicrobial active at which no visible colony growth is observed on the TSA plate.

Data set [2] relates to Enterobacter aerogenes. The data set can be described thus: Minimum Biocidal Concentration (MBC) in suspension. In kind it is cell-based. As to conditions: active in 0.5% MEA + 1.5% TEA alkaline composition, no horse serum, contact time 6 minutes; for MBC: Klebsiella aerogenes, 0.1 h, read-out: MBC (ppm) E. aerogenes. The procedure:
as §1, §2, §3, §4

Data set [3] can be described thus: pH measurement on the neat composition. In kind it is physicochemical. Conditions: composition of 0.5% MEA + 1.5% TEA with 50 ppm of the active; 25° C. The procedure:
The pH is measured on the neat composition, at 25° C., using a pH meter with compatible gel-filled pH probe (such as Sartarius PT-10P meter with Toledo probe part number 52 000 100), calibrated according to the instruction manual.

Turning to `CCCCCCCCN=c1ccn(CCCCCCCCCCn2ccc(=NCCCCCCCC)cc2)cc1` [Bispyridinium alkane, octenidine dihydrochloride], the minimal bactericidal concentration (MBC) in data set [1] is 3.13 µg/mL; in data set [2], 12.5 µg/mL. Besides, the pH in data set [3] is on record as 11.4.

As to `[H]/N=C(\N/C(=N/[H])NCCCCCCNC(=N)NC(=N)Nc1ccc(Cl)cc1)Nc1ccc(Cl)cc1` [Chlorhexidine], the MBC in data set [1] and in data set [2] was 50 µg/mL throughout. In data set [3], the pH was 11.2.

For the compound `CCCCCCCCCCCCN(CCCN)CCCN` [N-(3-Aminopropyl)-N-dodecylpropane-1,3-diamine], the MBC in data set [1] was found to be 12.5 µg/mL; in data set [2], 50 µg/mL. The pH in data set [3] is 11.5.

“N-alkyl dimethyl benzyl ammonium chloride”: the “MBC (ppm) S. aureus” value in data set [1] turned out to be 12.5 ppm. In addition, the “MBC (ppm) E. aerogenes” value in data set [2] came out at 12.5 ppm. In addition, the pH in data set [3] worked out at 11.4.
